According to patent US11220508B2, “TYK2 inhibitors and uses thereof” (Nimbus Lakshmi, Inc., priority 2016, dated 2022):
pKd: −log10 of the molar value.

Columns and labels:
TYK2 JH1 kinase function = TYK2 JH1 kinase function (Homo sapiens (Human), UniProt P29597); test: Tyk2 radioactive kinase assay; type: biochemical; conditions: active kinase assay, ATP at 10 μM
Protocol: (§1) Peptide substrate, [KKSRGDYMTMQIG], (20 μM) is prepared in reaction buffer (20 mM Hepes pH 7.5, 10 mM MgCl2, 1 mM EGTA, 0.02% Brij35, 0.02 mg/mL BSA, 0.1 mM […], 2 mM DTT, 1% DMSO. TYK2 (Invitrogen) kinase is added, followed by compounds in DMSO. 33PATP is added to initiate the reaction in ATP at 10 μM. Kinase reaction is incubated for 120 min at room temp and reactions are spotted onto P81 ion exchange paper (Whatman #3698-915), and then washed extensively in 0.75% phosphoric acid, prior to reading the radioactivity counts. For JAK2 (Invitrogen) kinase assay the peptide substrate poly[Glu:Tyr] (4:1), 0.2 mg/ml is used, in the reaction carried out the same as for TYK2.

JAK2 JH1 kinase function = JAK2 JH1 kinase function (Homo sapiens (Human), UniProt O60674); test: JAK2 radioactive kinase assay; type: biochemical; conditions: active kinase assay, ATP at 10 μM
JAK2 JH1 kinase function, sequence (O60674 whole entry): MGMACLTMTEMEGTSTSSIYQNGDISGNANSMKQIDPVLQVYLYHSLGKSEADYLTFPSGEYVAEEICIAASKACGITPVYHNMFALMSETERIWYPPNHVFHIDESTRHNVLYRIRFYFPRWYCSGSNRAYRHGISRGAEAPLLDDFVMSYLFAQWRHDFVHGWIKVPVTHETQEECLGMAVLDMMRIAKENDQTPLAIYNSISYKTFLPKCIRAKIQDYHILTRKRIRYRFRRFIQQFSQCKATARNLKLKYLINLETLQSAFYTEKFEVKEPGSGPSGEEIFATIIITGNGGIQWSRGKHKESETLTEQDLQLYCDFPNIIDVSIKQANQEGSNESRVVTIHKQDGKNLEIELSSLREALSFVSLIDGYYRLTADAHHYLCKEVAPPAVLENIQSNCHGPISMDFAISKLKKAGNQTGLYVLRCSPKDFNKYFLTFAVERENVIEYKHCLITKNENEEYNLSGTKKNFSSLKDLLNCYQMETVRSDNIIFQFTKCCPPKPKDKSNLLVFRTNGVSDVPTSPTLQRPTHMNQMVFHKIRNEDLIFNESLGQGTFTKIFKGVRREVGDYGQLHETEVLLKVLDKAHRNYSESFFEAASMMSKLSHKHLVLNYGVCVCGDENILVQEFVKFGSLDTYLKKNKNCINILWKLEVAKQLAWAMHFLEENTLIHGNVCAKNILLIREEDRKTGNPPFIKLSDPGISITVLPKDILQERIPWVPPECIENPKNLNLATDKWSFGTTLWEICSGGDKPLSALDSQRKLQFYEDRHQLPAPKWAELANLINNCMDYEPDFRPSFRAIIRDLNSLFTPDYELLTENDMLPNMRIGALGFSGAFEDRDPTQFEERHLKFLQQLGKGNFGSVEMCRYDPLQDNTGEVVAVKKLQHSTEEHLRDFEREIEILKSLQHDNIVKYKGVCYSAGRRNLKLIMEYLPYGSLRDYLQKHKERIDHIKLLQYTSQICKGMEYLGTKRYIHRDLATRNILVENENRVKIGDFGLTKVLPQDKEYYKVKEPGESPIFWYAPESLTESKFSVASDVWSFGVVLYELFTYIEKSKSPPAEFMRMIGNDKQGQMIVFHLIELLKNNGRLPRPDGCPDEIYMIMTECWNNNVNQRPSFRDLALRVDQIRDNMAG
Protocol: as §1

[1] = molecular target: human TYK2 (JH2domain-pseudokinase) (Homo sapiens (Human), UniProt P29597); test: TYK2 JH2 domain binding assay (KINOMEscan, DiscoveRx); conditions: Table 4, JH2 binding assay
human TYK2 (JH2domain-pseudokinase), sequence (P29597 556-888): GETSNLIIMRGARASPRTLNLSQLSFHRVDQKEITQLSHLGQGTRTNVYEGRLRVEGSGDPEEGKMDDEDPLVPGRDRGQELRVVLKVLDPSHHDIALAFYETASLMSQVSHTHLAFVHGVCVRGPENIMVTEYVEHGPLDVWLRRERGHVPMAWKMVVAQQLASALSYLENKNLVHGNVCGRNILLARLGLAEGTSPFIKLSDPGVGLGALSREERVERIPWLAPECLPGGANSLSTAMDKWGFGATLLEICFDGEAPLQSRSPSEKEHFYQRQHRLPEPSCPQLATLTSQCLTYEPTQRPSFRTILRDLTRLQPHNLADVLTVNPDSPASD

TYK2 JH1 kinase function, sequence (P29597 whole entry): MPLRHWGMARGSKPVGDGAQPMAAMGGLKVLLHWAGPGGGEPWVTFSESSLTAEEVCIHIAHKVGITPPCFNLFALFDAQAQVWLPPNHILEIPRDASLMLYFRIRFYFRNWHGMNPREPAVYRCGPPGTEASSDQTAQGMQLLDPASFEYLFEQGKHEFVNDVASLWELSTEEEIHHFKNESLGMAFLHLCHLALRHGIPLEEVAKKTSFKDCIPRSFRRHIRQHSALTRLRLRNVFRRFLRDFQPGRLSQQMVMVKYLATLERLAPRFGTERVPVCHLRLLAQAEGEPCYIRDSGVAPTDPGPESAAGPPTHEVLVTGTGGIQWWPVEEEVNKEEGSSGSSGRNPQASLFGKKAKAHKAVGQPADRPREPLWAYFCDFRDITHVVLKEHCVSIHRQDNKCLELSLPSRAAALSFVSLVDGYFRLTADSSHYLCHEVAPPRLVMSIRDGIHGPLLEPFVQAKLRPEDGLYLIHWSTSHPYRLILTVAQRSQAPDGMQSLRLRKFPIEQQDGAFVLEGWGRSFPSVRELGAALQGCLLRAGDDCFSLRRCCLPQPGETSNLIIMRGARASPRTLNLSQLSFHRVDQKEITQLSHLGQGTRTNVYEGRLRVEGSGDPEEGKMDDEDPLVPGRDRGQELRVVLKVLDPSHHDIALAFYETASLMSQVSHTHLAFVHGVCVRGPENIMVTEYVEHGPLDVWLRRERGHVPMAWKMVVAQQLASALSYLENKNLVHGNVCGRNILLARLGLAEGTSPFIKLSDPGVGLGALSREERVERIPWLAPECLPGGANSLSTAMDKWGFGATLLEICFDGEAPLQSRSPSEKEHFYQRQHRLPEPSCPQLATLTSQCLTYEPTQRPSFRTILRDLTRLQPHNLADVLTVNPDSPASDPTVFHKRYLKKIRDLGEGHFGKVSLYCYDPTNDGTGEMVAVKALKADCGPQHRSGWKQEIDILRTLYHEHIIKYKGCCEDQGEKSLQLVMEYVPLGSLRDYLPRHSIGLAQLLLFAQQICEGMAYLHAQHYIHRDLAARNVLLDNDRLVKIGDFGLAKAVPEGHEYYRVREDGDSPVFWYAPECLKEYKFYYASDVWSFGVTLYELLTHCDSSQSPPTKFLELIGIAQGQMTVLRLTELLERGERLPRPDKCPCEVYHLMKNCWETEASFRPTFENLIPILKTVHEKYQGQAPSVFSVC

Row | SMILES | inhibitory activity against TYK2 JH1 kinase function (TYK2 JH1 kinase function) | inhibitory activity against JAK2 JH1 kinase function (JAK2 JH1 kinase function) | pKd [1]
1 | COc1c(Nc2cc(NC(=O)C3CC3)ncc2-c2nnc(C(F)(F)F)o2)cccc1-c1ncn(C)n1 [VIII-3, N-(4-((2-methoxy-3-(1-methyl-1H-1,2,4-triazol-3-yl)phenyl)amino)-5-(5-(trifluoromethyl)-1,3,4-oxadiazol-2-yl)pyridin-2-yl)cyclopropanecarboxamide] | no detectable inhibitory activity | no detectable inhibitory activity | 
2 | COc1c(Nc2cc(NC(=O)C3CC3)ncc2-c2ncc(F)s2)cccc1-c1nnn(C)n1 [VIII-2, N-(5-(5-fluorothiazol-2-yl)-4-((2-methoxy-3-(2-methyl-2H-tetrazol-5-yl)phenyl)amino)pyridin-2-yl)cyclopropanecarboxamide] | no detectable inhibitory activity | no detectable inhibitory activity | 
3 | COC(=O)c1nnc(-c2cnc(NC(=O)C3CC3)cc2Nc2cccc(-c3ncn(C)n3)c2OC)o1 [VIII-4, methyl 5-(6-(cyclopropanecarboxamido)-4-((2-methoxy-3-(1-methyl-1H-1,2,4-triazol-3-yl)phenyl)amino)pyridin-3-yl)-1,3,4-oxadiazole-2-carboxylate] | no detectable inhibitory activity | no detectable inhibitory activity | 
4 | COCc1ccnc(Nc2cc(Nc3cccc(-c4nnn(C)n4)c3OC)c3c(=O)n(C)[nH]c3n2)c1 [Compound I-2, 4-((2-methoxy-3-(2-methyl-2H-tetrazol-5-yl)phenyl)amino)-6-((4-(methoxymethyl)pyridin-2-yl)amino)-2-methyl-1,2-dihydro-3H-pyrazolo[3,4-b]pyridin-3-one] | no detectable inhibitory activity |  | 
5 | COc1c(Cl)cccc1Nc1cc(Nc2cccc(N3CC(OC)C3)n2)nc2[nH]n(C)c(=O)c12 [Compound I-116, 4-((3-chloro-2-methoxyphenyl)amino)-6-((6-(3-methoxyazetidin-1-yl)pyridin-2-yl)amino)-2-methyl-1,2-dihydro-3H-pyrazolo[3,4-b]pyridin-3-one] |  |  | < 8.00
6 | COc1c(Nc2cc(NC(=O)C3CC3)nc3[nH]n(C)c(=O)c23)cccc1-c1nnn(C)n1 [Compound I-1, N-(4-((2-methoxy-3-(2-methyl-2H-tetrazol-5-yl)phenyl)amino)-2-methyl-3-oxo-2,3-dihydro-1H-pyrazolo[3,4-b]pyridin-6-yl)cyclopropanecarboxamide] | no detectable inhibitory activity |  | 
7 | COc1c(Nc2cc(NC(=O)C3CC3)ncc2-c2ncc(Cl)s2)cccc1-c1nnn(C)n1 [VIII-1, N-(5-(5-chlorothiazol-2-yl)-4-((2-methoxy-3-(2-methyl-2H-tetrazol-5-yl)phenyl)amino)pyridin-2-yl)cyclopropanecarboxamide] | no detectable inhibitory activity | no detectable inhibitory activity | 
